For assay [1], the system named is HBV strain A, L180M+M204V (highly Lamivudine-resistant strain). In words: HBV propagation suppression in Huh-7 cells, strain A (highly Lamivudine-resistant). Type of assay: cell-based. The settings on record: Hepatitis B virus, Huh-7, read-out: 50% propagation suppression. On the procedure:
(§1) FIG. 1B is a graph showing the effect of an agent on Huh-7 cells infected with various HBV strains. • A: highly Lamivudine-resistant strain, 50% propagation suppression=3.4 μM; • B: Entecavir-resistant strain, 50% propagation suppression=3.7 μM; • C: Lamivudine-resistant strain, 50% propagation suppression=3.6 μM; • Wild: wild-type strain, 50% propagation suppression=3.2
(§2) On the day before HBV infection, about 100,000 Huh-7 cells were plated in 12-well plates (FALCON, 353043) using culture medium DMEM (SIGMA, D6429).
(§3) On the day of infection, 50 μl of a homogenous mixture of 0.5 μg of HBV-DNA (described in “Sugiyama M, et al. HEPATOLOGY, Vol. 44: 915-924, 2006”), 1.5 μl of FUGENE6 (Roche Diagnostics; 11 814 443 001), 5 μl of SEAP, and 43 μl of OPTIMEM (Invitrogen; 31985) was added to the Huh-7 cells in each well. […]
(§4) HBV was quantified by measuring HBV-DNA using real-time PCR (Device used: Applied Biosystems, 4318157). […]
(§5) (SEQ ID NO: 2); and HBVSP2 has the sequence of: FAM-[…]-TAMRA (SEQ ID NO: 3)). […] HBV-DNA copy numbers were determined from the obtained fluorescent signals.
(§6) Furthermore, the effect of suppressing HBV propagation was assessed by the same method using Lamivudine- and Entecavir-resistant strains (A, L180M+M204V; B, L180M+M204V+T184L; C, M204V (YVDD)) as well as wild-type HBV strain (Wild).

Assay [2] deals with HBV (genotype C_AT; wild-type strain). In words: Anti-HBV effect on HBV-infected Huh-7 cells, HBV-DNA in supernatant by real-time PCR (wild-type strain). Type of assay: cell-based. The settings on record: Hepatitis B virus. On the procedure: The present inventors assessed the anti-HBV effect of the compound represented by formula (III) on Huh-7 cells infected with HBV (genotype C_AT; wild-type strain).
as §2
On the day of infection, 50 μl of a homogenous mixture of 0.5 μg of HBV-DNA (described in “Sugiyama M, et al. HEPATOLOGY, Vol. 44: 915-924, 2006”), 1.5 μl of FUGENE6 (Roche Diagnostics; 11 814 443 001), 5 μl of SEAP, and 43 μl of OPTIMEM (Invitrogen; 31985) was added to the Huh-7 cells in each well. Then, the compound represented by formula (III) was added at a final concentration of 0, 3, 10, or 30 μM.
The cells were cultured at 37° C. under 5% CO2 for three days, and then culture supernatant was collected from each well. The supernatant was treated with deoxyribonuclease (DNase) to remove free DNA. […]
as §4, §5

Assay [3] relates to HBV strain C, M204V (YVDD) (Lamivudine-resistant strain). In words: HBV propagation suppression in Huh-7 cells, strain C (Lamivudine-resistant). Type of assay: cell-based. The settings on record: Hepatitis B virus, Huh-7, read-out: 50% propagation suppression. On the procedure: as §1, §2, §3, §4, §5, §6
In assay [4] the test system is HBV strain B, L180M+M204V+T184L (Entecavir-resistant strain). The assay is described as follows: HBV propagation suppression in Huh-7 cells, strain B (Entecavir-resistant). It is filed as cell-based. The note with it: Hepatitis B virus, Huh-7, read-out: 50% propagation suppression. On the procedure: as §1, §2, §3, §4, §5, §6
The subject of assay [5] is genotype C HBV (L180M+S202G+M204V; ETV-resistant strain). In words: Virus titer in chimeric mice having human liver infected with ETV-resistant genotype C HBV (Example 5). Type of assay: in vivo, Hepatitis B virus. The note with it: formula (III) 5 mg/kg iv daily, PEG-IFN 30 μg/kg sc, ETV 0.02 mg/kg oral daily (FIG. 5). The source says:
(§7) Next, serum HBV was purified by the same method as described in Example 1, and HBV was quantified by measuring HBV-DNA using real-time PCR method. The sequences of primers HBSF2: 5′-CTTCATCCTGCTGCTATGCCT-3′[nt 406-426] (SEQ ID NO: 4) and HBSR2: 5′-AAAGCCCAGGATGATGGGAT-3′[nt 646-627] (SEQ ID NO: 5), and the sequence of TaqMan probe HBSP2 (nt 461-488) (5′-ATGTTGCCCGTTTGTCCTCTAATTCCA-3′ (SEQ ID NO: 6)) were the same as those described in the reference (Abe A, Inoue K, Tanaka T, Kato J, Kajiyama N, Kawaguchi R, Tanaka S, et al. Quantitation of hepatitis B virus genomic DNA by real-time detection PCR. J Clin Microbiol (1999) 37: 2899-2903).
The same test as described in Example 3 was carried out using chimeric mice (purchased from PhoenixBio Co., Ltd.) having human liver infected with genotype C HBV (L180M+S202G+M204V; ETV-resistant strain). The compound represented by formula (III) was administered at 5 mg/kg (intravenous injection every day), while PEG-IFN was administered at 30 μg/kg (subcutaneous injection). Entecavir (ETV) was administered at 0.02 mg/kg (oral administration every day).

Assay [6] has as its system HBV (genotype C_AT; wild-type strain). The assay is described as follows: Virus titer in chimeric mice having human liver infected with genotype C_AT HBV (Example 4). The note with it: second week, formula (III) 5 mg/kg iv daily, PEG-IFN 30 μg/kg sc, ETV 0.02 mg/kg oral daily (FIG. 4). It is filed as in vivo, Hepatitis B virus.
Excerpt: as §7
The same test as described in Example 3 was carried out using chimeric mice (purchased from PhoenixBio Co., Ltd.) having human liver infected with HBV (genotype C_AT; wild-type strain). The compound represented by formula (III) was administered at 5 mg/kg (intravenous injection every day), while PEG-IFN was administered at 30 μg/kg (subcutaneous injection). Entecavir (ETV) was administered at 0.02 mg/kg (oral administration every day).

Where two headings read alike, the source gives them in different places.

From patent US20110160252A1, “PHARMACEUTICAL COMPOSITIONS FOR TREATMENT OR PREVENTION OF HBV INFECTION” (priority 2008, published 2011) come the findings set out here.

Consider `CC#CCOc1ccc(C[C@H](NC(=O)[C@@H](/C=C/CCCCCCC(=O)CCCCCCC)[C@@](O)(CC(=O)O)C(=O)O)C(=O)O)cc1` [compound represented by formula (III)], for which the IC50 was 3.4 µM in assay [1]; about 3 µM in assay [2] (72 h, Huh-7 cells, genotype C_AT wild-type HBV, three days culture, HBV-DNA in supernatant (FIG. 1A), read-out: 50%-inhibition concentration (IC50)); 3.2 µM in assay [2] (Huh-7, read-out: 50% propagation suppression); 3.6 µM in assay [3]; 3.7 µM in assay [4].

As for `C=C1[C@H](CO)[C@@H](O)C[C@@H]1n1cnc2c(=O)[nH]c(N)nc21` [ETV, Entecavir], the viral decrease in assay [5] amounted to 0.3 Log. Further, in assay [6], the “mean decrease of virus titer” value is on record as 1.4 Log.
